Experimental findings from patent publication US20190381084A1, “COMBINATION THERAPY” (NUCANA BIOMED LIMITED, priority 2015, published 2019) are described below.

One may read the IC50 as the concentration that inhibits the measured activity by half.

Read-outs that look alike come from different tables or passages of the source. A value given as a limit tells only on which side of the number the result lay.

Data set [1] is described as follows: ProGem1 phase I study in subjects with advanced solid malignancies. The format is in vivo, human. An excerpt:
ProGem1 was a first-time-in-human (FTIH), phase I, open label, two stage study to investigate the safety, tolerability, clinical efficacy, pharmacokinetics (PK) and pharmacodynamics (PD) of NUC-1031 given in two parallel dosing schedules in subjects with advanced solid malignancies (EudraCT Number: 2011-005232-26). Subjects had the following tumour types at study entry: colorectal cancer (7 subjects), unknown primary (3), ovarian cancer (12), breast cancer (4), pancreatic cancer (9), cholangiocarcinoma (7), endometrial cancer (3), cervical cancer (2), lung cancer (7), mesothelioma (3), oesophageal cancer (3), cancer of the fallopian tube (1), trophoblast (1), renal cancer (1), gastric cancer (1), anal cancer (1), cancer of the thymus (1) and osteosarcoma (1).

The subject of a further data set is NCI-H1975. The data set is described as follows: Single agent cytotoxicity assay (CellTiter-Glo). The class given is cell-based. As to conditions: CTG assay, 72 h; for IC50: Homo sapiens. The protocol: (§1) A2780, SK-OV-3, OVCAR-3, NCI-H460, NCI-H1975, NCI-H2122, 5637 and HT1376 were cultured in RPMI Medium 1640 (Invitrogen-22400105) supplemented with 10% fetal bovine serum (FBS; Invitrogen-10099141). All the cell lines were maintained in a humidified incubator at 37° C. with 5% CO2. Cell culture media and supplements were purchased from Invitrogen, and tissue culture flasks were purchased from Corning, 96-well plates and 384-well plates were purchased from Greiner. CellTiter-Glo Luminescent Cell Viability Assay kits were purchased from Promega (Promega-G7573), cells counter Vi-Cell was purchased from Beckman, detection instrument Envision was purchased from PerkinElmer.
(§2) Paclitaxcel (used as a reference) and cisplatin were purchased from SELLECK, and they were of highest purity available. All compounds attained solubility in DMSO and when diluted into culture media. DMSO, compounds solutions and culture media were warmed to 37° C. for the solution preparation and dilutions.
(§3) Eight cell lines were allowed to adhere to 96-well plates overnight (100 μL/well), for drug treatments with 3.16 fold dilution, 9 dose points, triplicates or vehicle control, compound stock solutions were prepared in DMSO and added to the wells to give the indicated final drug concentrations. Final DMSO concentration was 0.5%. Cellular ATP concentrations were assessed by using the CellTiter-Glo Cell Viability Assay as per the manufacturer's instructions 72 h after drug addition.
(§4) Stage 1: Single Agent IC50 Determination
(§5) In Stage 1 the IC50 (using 5 or more concentrations) of each individual compound cisplatin, carboplatin, gemcitabine and NUC-1031) in the relevant cell lines was determined.
(In general: ATP-based viability assays read luminescence as a measure of living cells.)

The next data set deals with OVCAR-3. The data set is described as follows: Single agent cytotoxicity assay (CellTiter-Glo). The conditions noted are these: CTG assay, 72 h; for IC50: Homo sapiens. The format is cell-based. The protocol:
as §1, §2, §3, §4, §5

In a further data set the test system is SK-OV-3. The data set is described as follows: Single agent cytotoxicity assay (CellTiter-Glo). The conditions noted are these: 72 h; for IC50: Homo sapiens, SK-OV-3, SK-OV3, CTG assay. The format is cell-based. As for the experimental part: as §1, §2, §3, §4, §5
In another data set the test system is 5637. The data set is described as follows: Single agent cytotoxicity assay (CellTiter-Glo). The format is cell-based. As to conditions: CTG assay, 72 h. As for the experimental part:
as §1, §2, §3, §4, §5

A further data set relates to HT1376. The data set is described as follows: Single agent cytotoxicity assay (CellTiter-Glo). The format is cell-based. The conditions noted are these: 72 h; for IC50: Homo sapiens, HT-1376, CTG assay. As for the experimental part: as §1, §2, §3, §4, §5
The subject of a further data set is NCI-H460. The data set is described as follows: Single agent cytotoxicity assay (CellTiter-Glo). The format is cell-based. As to conditions: CTG assay, 72 h; for IC50: Homo sapiens. As for the experimental part: as §1, §2, §3, §4, §5
In another data set the test system is A2780. The data set is described as follows: Single agent cytotoxicity assay (CellTiter-Glo). The format is cell-based. As to conditions: CTG assay, 72 h; for IC50: Homo sapiens. The protocol: as §1, §2, §3, §4, §5

As to `C[C@H](NP(=O)(OC[C@H]1O[C@@H](n2ccc(N)nc2=O)C(F)(F)[C@@H]1O)Oc1ccccc1)C(=O)OCc1ccccc1` (stereo partly drawn) [NUC-1031, 2′-Deoxy-2′,2′-difluoro-D-cytidine-5′-O-[phenyl (benzoxy-L-alaninyl)] phosphate], the anti-tumour activity entry in data set [1] (patients with advanced progressive cancers who exhausted standard options) is reported as “anti-tumour activity”. Further, the “levels of toxic metabolite dFdU released relative to gemcitabine” value in data set [1] (relative to levels normally associated with gemcitabine) is reported as “less than half”. Besides, the “Max Inhibition_%” value in the data set with NCI-H1975 is 37.91%; in the data set with OVCAR-3, 11.76%; with SK-OV-3 (SK-OV3, CTG assay) it was 61.59%; with 5637, 77.88%; with HT1376 (CTG assay) it was −2.54%; in the data set with NCI-H460 it was 91.98%. In addition, the “Max Inhibition_%” value in the data set on A2780 is 79.15%. Besides, the IC50 in the data set on NCI-H1975 (read-out: Ab IC50) was more than 1980 nM; in the data set with NCI-H1975 (read-out: relative IC50), 370 nM; with OVCAR-3 (read-out: Ab IC50), more than 1980 nM; with OVCAR-3 (read-out: relative IC50), 200 nM; in the data set with SK-OV-3 (read-out: Ab IC50), 70 nM; in the data set on SK-OV-3 (read-out: relative IC50), 60 nM. Moreover, the IC50 in the data set with 5637 (read-out: Ab IC50) was 200 nM; in the data set with 5637 (read-out: relative IC50), 120 nM; in the data set on HT1376 (read-out: Ab IC50), more than 1980 nM; in the data set on HT1376 (read-out: relative IC50) it was more than 1980 nM; with NCI-H460 (read-out: Ab IC50), 40 nM; in the data set on NCI-H460 (read-out: relative IC50) it was 40 nM. The IC50 came to 25 nM with A2780 (read-out: Ab IC50) and 16 nM with A2780 (read-out: relative IC50).
